Data: ChEMBL document CHEMBL5537136 (J Med Chem, 2024)

Experiments:
[1] = biological target: T1, Protein mono-ADP-ribosyltransferase PARP10 (Homo sapiens, UniProt Q53GL7); assay: Inhibition of PARP10 (unknown origin) measured after 1 hr incubation by microplate reader assay
T1 sequence (Q53GL7 whole entry): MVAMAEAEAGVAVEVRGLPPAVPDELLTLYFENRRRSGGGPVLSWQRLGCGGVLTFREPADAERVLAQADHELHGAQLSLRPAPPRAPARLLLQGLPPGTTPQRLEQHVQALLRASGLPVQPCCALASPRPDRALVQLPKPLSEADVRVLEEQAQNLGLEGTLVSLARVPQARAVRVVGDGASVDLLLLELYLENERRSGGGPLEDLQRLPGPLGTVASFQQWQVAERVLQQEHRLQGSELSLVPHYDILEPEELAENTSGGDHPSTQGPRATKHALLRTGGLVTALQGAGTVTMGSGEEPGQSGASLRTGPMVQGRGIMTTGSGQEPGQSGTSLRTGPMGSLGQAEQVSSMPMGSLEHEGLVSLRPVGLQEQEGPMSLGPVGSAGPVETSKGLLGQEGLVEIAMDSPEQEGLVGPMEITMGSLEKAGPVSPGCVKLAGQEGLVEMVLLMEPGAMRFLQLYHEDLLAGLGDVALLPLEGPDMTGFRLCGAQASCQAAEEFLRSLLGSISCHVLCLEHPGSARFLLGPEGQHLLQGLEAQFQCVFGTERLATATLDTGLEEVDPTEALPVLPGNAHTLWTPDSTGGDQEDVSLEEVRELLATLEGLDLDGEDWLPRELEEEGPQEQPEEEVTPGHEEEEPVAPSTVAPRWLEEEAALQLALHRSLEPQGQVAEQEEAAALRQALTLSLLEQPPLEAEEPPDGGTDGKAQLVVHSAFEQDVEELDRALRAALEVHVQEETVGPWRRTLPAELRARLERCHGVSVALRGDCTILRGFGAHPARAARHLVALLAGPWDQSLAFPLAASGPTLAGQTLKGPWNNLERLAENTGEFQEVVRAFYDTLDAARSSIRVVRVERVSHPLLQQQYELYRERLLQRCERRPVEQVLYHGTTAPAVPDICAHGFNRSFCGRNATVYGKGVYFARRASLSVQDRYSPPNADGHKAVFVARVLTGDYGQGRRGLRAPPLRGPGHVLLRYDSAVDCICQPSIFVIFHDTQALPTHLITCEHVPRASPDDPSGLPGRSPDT

[2] = Half life in ICR mouse at 1 mg/kg, iv measured upto 24 hrs by LC-MS/MS analysis; assay type: ADME, organism-based; details: in vivo
[3] = tested on: CT26; assay: Antitumor activity in immunocompetent mouse CT26 cell bearing Balb/c mouse model assessed as induction of IFN-beta mRNA expression in tumor tissue treated IG twice a day measured after 14 days by quantitative real-time PCR analysis; assay type: functional; details: dose lower 6.25 mg/kg, dose upper […], time 14.0 day
[4] = AUC (0 to infinity) in ICR mouse at 10 mg/kg, IG measured upto 24 hrs by LC-MS/MS analysis; assay type: ADME, organism-based; details: in vivo, po
[5] = Toxicity in Balb/c mouse bearing mouse CT26 cells assessed as morphological changes in spleen at 6.25 to 25 mg/kg, IG measured after 14 days by hematoxylin and eosin staining based assay; assay type: organism-based; details: in vivo, po, 336 h, dose 6.25-25 mg/kg, time 14 day
[6] = Permeability across basolateral to apical side in human Caco-2 cells; assay type: ADME, cell-based
[7] = Acute toxicity in ICR mouse assessed as change in body weight at 1000 mg/kg, po measured after 7 days; assay type: organism-based; details: in vivo, 168 h, time 7 day
[8] = Oral bioavailability in ICR mouse at 10 mg/kg measured upto 24 hrs by LC-MS/MS analysis; assay type: ADME, organism-based; details: in vivo
[9] = biological target: Protein mono-ADP-ribosyltransferase PARP14 (Homo sapiens, UniProt Q460N5); assay: Inhibition of PARP14 (unknown origin) measured after 1 hr incubation by microplate reader assay
[10] = tested on: CT26; assay: Induction of anti-tumor immunity in mouse CT26 cells assessed as increase in CXCL10 mRNA expression incubated for 2 days by quantitative real-time PCR analysis; assay type: functional, cell-based; details: dose 0.04-0.44 µM, time 2.0 day
[11] = Toxicity in Balb/c mouse bearing mouse CT26 cells assessed as body weight change at 6.25 to 25 mg/kg, IG measured after 14 days; assay type: organism-based; details: in vivo, po, 336 h, dose 6.25-25 mg/kg, time 14 day
[12] = tested on: CT26; assay: Induction of anti-tumor immunity in mouse CT26 cells assessed as increase in IFN-beta mRNA expression incubated for 2 days by quantitative real-time PCR analysis; assay type: functional, cell-based; details: dose 0.04-0.44 µM, time 2.0 day

Chain of Protein mono-ADP-ribosyltransferase PARP14 (Q460N5 whole entry): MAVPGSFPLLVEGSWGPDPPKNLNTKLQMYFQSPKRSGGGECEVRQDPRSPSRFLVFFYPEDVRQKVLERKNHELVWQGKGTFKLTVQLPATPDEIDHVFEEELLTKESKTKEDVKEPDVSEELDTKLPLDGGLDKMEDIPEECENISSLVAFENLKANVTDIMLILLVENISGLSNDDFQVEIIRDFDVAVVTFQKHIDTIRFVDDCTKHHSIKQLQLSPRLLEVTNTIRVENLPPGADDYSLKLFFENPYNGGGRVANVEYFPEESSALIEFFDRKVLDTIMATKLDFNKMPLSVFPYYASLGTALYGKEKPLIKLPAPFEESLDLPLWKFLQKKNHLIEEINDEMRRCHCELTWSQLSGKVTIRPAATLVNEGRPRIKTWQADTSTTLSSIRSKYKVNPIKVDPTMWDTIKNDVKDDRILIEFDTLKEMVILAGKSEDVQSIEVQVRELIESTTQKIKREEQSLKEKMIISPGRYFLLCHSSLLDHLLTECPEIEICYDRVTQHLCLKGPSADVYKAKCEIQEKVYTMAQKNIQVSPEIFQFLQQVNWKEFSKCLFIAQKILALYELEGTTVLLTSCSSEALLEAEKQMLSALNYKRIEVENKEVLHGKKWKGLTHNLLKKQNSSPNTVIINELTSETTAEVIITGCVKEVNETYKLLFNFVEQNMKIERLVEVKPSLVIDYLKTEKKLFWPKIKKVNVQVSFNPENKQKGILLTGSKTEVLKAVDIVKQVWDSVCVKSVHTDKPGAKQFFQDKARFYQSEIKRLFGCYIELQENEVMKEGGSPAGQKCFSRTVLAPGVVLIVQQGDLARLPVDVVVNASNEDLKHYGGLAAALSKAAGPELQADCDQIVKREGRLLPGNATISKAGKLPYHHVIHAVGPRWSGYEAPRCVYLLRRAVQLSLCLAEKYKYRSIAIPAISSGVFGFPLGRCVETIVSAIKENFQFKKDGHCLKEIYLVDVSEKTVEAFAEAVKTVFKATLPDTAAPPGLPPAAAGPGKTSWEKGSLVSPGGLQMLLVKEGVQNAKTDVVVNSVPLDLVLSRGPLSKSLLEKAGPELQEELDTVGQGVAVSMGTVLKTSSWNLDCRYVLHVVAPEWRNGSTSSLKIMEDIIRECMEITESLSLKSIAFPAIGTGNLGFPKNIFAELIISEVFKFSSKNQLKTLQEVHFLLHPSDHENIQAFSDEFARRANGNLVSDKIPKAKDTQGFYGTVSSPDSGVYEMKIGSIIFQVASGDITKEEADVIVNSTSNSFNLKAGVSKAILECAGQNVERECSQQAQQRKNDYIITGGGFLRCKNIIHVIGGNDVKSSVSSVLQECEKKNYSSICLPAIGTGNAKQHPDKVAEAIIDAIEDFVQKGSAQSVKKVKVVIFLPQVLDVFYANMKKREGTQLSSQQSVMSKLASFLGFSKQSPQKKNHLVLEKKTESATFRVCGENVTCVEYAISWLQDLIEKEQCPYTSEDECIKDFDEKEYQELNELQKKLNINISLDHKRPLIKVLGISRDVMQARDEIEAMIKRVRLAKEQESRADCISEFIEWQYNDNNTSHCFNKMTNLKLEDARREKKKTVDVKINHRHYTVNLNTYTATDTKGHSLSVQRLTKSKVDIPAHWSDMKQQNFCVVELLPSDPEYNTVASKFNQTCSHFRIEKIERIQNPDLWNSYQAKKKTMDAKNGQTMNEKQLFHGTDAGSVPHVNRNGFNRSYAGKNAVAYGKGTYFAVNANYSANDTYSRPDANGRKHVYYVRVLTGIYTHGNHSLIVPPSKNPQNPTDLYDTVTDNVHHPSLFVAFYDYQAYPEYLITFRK

For `C[C@@H](C(=O)N1CCN(c2ncc(C(F)(F)F)cn2)CC1)n1cc2cccc(C(N)=O)c2n1`, the IC50 [1] was 377 nM, the half-life [2] was 1.22 h and the Activity [3] was “Dose-Dependent Effect”. The AUC(0-inf) [4] was 17000 ng·h/mL, the Activity [5] was “Non-Toxic” and the Papp B→A [6] was 20.7 ×10⁻⁶ cm/s. The Activity [7] was “Non-Toxic”, the bioavailability [8] was 94.6% and the IC50 [9] was over 1300 nM. The Activity [10] was “Dose-Dependent Effect”, the Activity [11] was “Non-Toxic” and the Activity [12] was “Dose-Dependent Effect”.
